Data from patent US8974836B2, “Angiogenesis regulating composition and method for regulating angiogenesis” (Air Water, Inc., priority 2009, dated 2015).
Like-named read-outs stand apart in the source and are kept apart here.

What was measured:
[1] = tested on: model mice of oxygen-induced retinal angiogenesis; assay: Exemplary experiment 4: nitrite versus general-purpose nitrogen monoxide donor drugs, retinal avascular area; type: in vivo, C57BL/6J mouse
Experimental: Preparation of the model mice of oxygen-induced retinal angiogenesis, fluorescent imaging of retinal vessels and a retinal flat-mount were operated according to exemplary experiment 1.
(§1) Areal ratio of retinal avascular area was calculated pursuant to exemplary experiment 1.

[2] = tested on: model mice of oxygen-induced retinal angiogenesis; details: for retinal avascular area reduced as compared to control group: 15 or 75 μmol/kg once per day P7-P16, versus physiological saline
From the text: C57BL/6J mouse (SLC) was used as an experimental animal. […] Neonatal mice were bred from the 7th day (P7) to the 12th day (P12) after birth together with a parent mouse in a cage of high levels of oxygen (75±1% of O2) controlled by oxygen control equipment (PRO-OX110, produced by Reming Bioinstruments Co) to provide high levels of oxygen (75±1% of O2). Retinal angiogenesis was induced by breeding under normoxic condition (21% of O2) from the 12th day to the 17th day after birth. […] In addition, physiological saline as controls was similarly injected hypodermically instead of test compound.
Fifty micro grams per animal of fluorescein-conjugated dextran (FITC-dextran; M.W. 2×10^6, produced by SIGMA) were systemically perfused from the left ventricle under deep anesthesia with pentobarbital on the 17th day after birth (P17). After the perfusion, eyes of mouse were removed and fixed in a 4% paraformaldehyde phosphate buffer for 4-12 hours. After the fixation, the cornea and the lens were excised from eye, and the residual hyaloid artery was removed by micro tweezers. The retina was separated under a microscope, and subsequently set flat and embedded in [sequence] (produced by Vector Laboratories Inc.) for preparation of a retinal flat-mount.
Flat mounted retinas were imaged with a high sensitivity CCD camera under a fluorescent inverted microscope (Olympus IX71). A value of total retinal area and a value of retinal avascular area in obtained image were converted to numeric data by Photoshop CS4 extended (Adobe), and a value of areal ratio of retinal avascular area in comparison with the value of total retinal area was calculated by the following equation: value of areal ratio of retinal avascular area=value of retinal avascular area (μm^2)/value of total retinal area (μm^2)×100

methemoglobinemia = details: reported for Rodentia; cited from earlier work
[3] = tested on: model mice of oxygen-induced retinal angiogenesis; assay: Exemplary experiment 3: regulation of retinal angiogenesis, administration from start of angiogenesis (P12); type: in vivo, C57BL/6J mouse; details: for value of areal ratio of retinal avascular area / value of retinal avascular area: 15 μmol/kg hypodermically once per day P12-P16, average; for reduction of retinal avascular area in comparison with a control group: 15 μmol/kg, administered from the start of retinal angiogenesis (P12)
Experimental: For the model mice of oxygen-induced retinal angiogenesis, retinal angiogenesis is induced by providing 75% oxygen followed by breeding in room air during P12-P17.
Sodium nitrate or sodium nitrite as a test compound was dissolved in physiological saline for injection to prepare a test compound injection of […].
Preparation of the model mice of oxygen-induced retinal angiogenesis, fluorescent imaging of retinal vessels and a retinal flat-mount were operated according to exemplary experiment 1. However sodium nitrate or sodium nitrite was injected to a cervical region hypodermically once per day in amount of 15 μmol/kg for […] from the 12th day (P12) to the 16th day (P16) after birth. In addition, physiological saline as controls was similarly injected hypodermically instead of test compound for the same period of time.
as §1

[4] = tested on: model mice of oxygen-induced retinal angiogenesis; assay: Exemplary experiment 5: nitrite versus anti-VEGF antibody, retinal avascular area; type: in vivo, C57BL/6J mouse; details: 15 μmol/kg hypodermically once per day P7-P16, average
Experimental: Using the model mice of oxygen-induced retinal angiogenesis, a comparison was made about retinopathy treatment effect between nitrite and an anti-VEGF antibody used for treatment of progressive colorectal cancer, age-related macular degeneration and so on.
Sodium nitrite as a test compound was dissolved in physiological saline for injection to prepare a test compound injection of 3 μmol/ml. For a comparative example, a murine monoclonal anti-VEGF antibody (produced by SANTACRUZ BIOTECHNOLOGY, INC.) was condensed to prepare 500 μg IgG/ml of an injection for the comparative example.
Preparation of the model mice of oxygen-induced retinal angiogenesis, fluorescent imaging of retinal vessels and a retinal flat-mount were operated according to exemplary experiment 1. Sodium nitrite was injected to a cervical region hypodermically once per day in amount of 15 μmol/kg for ten days from the 7th day (P7) to the 16th day (P16) after birth. The anti-VEGF antibody was injected through the corneal limbus to the vitreous body with a microsyringe equipped with a 33G hypodermic needle, by cutting mice eyelids open when oxygenation ended (on the 12th day alter birth).
as §1

[5] = tested on: model mice of oxygen-induced retinal angiogenesis; assay: Exemplary experiment 2: suppression of pathologic neovascularization (pathological vessels extending into the vitreum); type: in vivo, C57BL/6J mouse; details: for number of pathological vessels breaking the inner limiting membrane and extending into the vitreum: 15 or 75 μmol/kg once per day P7-P16, P17, FIG. 2, versus physiological saline
Experimental: The effect of sodium nitrate and sodium nitrite for suppression of pathologic neovascularization by oxygen-induced retinal vascularized model was evaluated.
(§2) Sodium nitrate or sodium nitrite as a test compound was dissolved in physiological saline for injection to prepare a test compound injection of […].
C57BL/6J mouse (SLC) was used as an experimental animal. The model mice of oxygen-induced retinal angiogenesis were prepared according to exemplary experiment 1. Sodium nitrate or sodium nitrite was injected to a cervical region hypodermically once per day in amount of 15 or 75 μmol/kg for ten days from the 7th day (P7) to the 16th day (P16) after birth. In addition, physiological saline as controls was similarly injected hypodermically instead of test compound.
On the 17th day after birth (P17), the mice were euthanised by overdose of pentobarbital, and eyes were removed together with optic nerve. The eyes were washed in physiological saline, excessive tissues were excised, and the eyes were thus fixed in a 4% paraformaldehyde phosphate buffer for 12 hours. After the fixation, the eyes were dehydrated by immersing in a graded ethanol series of 70-100% sequentially and were embedded in paraffin.

[6] = Exemplary experiment 6: plasma concentration of nitrate ions after administration; details: P12, average
Experimental: as §2
C57BL/6J mouse (SLC) was used as an experimental animal. The model mice of oxygen-induced retinal angiogenesis were prepared according to exemplary experiment 1. […] Thereafter, isoflurane was used to anesthetize the mice, and 150 μl of blood was collected from the abdominal aorta over time. Plasma concentration of nitrate ions was measured by ion exchange chromatography using a normal phase column under the following conditions:
Conditions for Ion Exchange Chromatography • Separation column: Asahipak NH2P-50 4E (4.6 mm×250 mm) • Guard column: Inertsil NH2 (5 μm) (4 mm×10 mm) • Mobile phase: 10 mM of sodium dihydrogenphosphate, 150 mM of sodium perchlorate, 5.0 • Flow rate: 0.7 ml/min • Detection wavelength: 210 nm

[7] = in vivo; cited from earlier work
[8] = 20 μmol/kg hypodermically once per day P7-P16, average
[9] = 15 μmol/kg hypodermically once per day P7-P16, average
[10] = 15 μmol/kg hypodermically once per day P7-P16, evaluated P17, average
[11] = 75 μmol/kg hypodermically once per day P7-P16, evaluated P17, average

With `O=[N+]([O-])OCC(CO[N+](=O)[O-])O[N+](=O)[O-]` [NTG, nitroglycerin] the “value of areal ratio of retinal avascular area” value [1, 8] was 21.36%, the “value of retinal avascular area” value [1, 8] was 1456421.33 μm^2 and the “retinal avascular area increased in comparison with a group administered with nitrite” value ([1]; SNP 2 μmol/kg, NTG 20 μmol/kg versus sodium nitrite 15 μmol/kg, P7-P16) was “approximately 3.3 times”. The “reduction of avascular area (typical symptom of retinopathy), in words” value ([1]; SNP 2 μmol/kg, NTG 20 μmol/kg, once per day P7-P16) was “Neither SNP nor NTG was observed to reduce”.

For `O=NO` [sodium nitrite], the “value of areal ratio of retinal avascular area” value [1, 9] was 6.44%, the “value of retinal avascular area” value [1, 9] was 417863.94 μm^2 and the “value of areal ratio of retinal avascular area” value [2, 10] was 6.44%. For the same compound, the “value of retinal avascular area” value [2, 10] was 417863.94 μm^2, the “value of areal ratio of retinal avascular area” value [2, 11] was 10.01% and the “value of retinal avascular area” value [2, 11] was 571705.28 μm^2. For the same compound, the “retinal avascular area reduced as compared to control group” value [2] was 40-60%, the “maximal no-effect dose for methemoglobinemia” value (methemoglobinemia) was 84 mg/kg/day and the “value of areal ratio of retinal avascular area” value [3] was 9.3%. For the same compound, the “value of retinal avascular area” value [3] was 621218.70 μm^2, the “reduction of retinal avascular area in comparison with a control group” value [3] was “approximately 40%” and the “value of areal ratio of retinal avascular area” value [4] was 9.3%. For the same compound, the “value of retinal avascular area” value [4] was 621218.70 μm^2, the “value of areal ratio of retinal avascular area” value ([4]; listed as nitrite) was 9.3% and the “pathological vessels reduced as compared with a control” value ([5]; 75 μmol/kg once per day P7-P16, P17) was “approximately 30%”. For the same compound, the “number of pathological vessels breaking the inner limiting membrane and extending into the vitreum” value [5] was “decreased”.

With `O=[N+]([O-])[O-].[Na+]` [sodium nitrate] the “maximum plasma concentration of nitrate ions after single-dose administration” value ([6]; 15 μmol/kg subcutaneously in cervical region) was 135.38 µmol/L, the “maximum plasma concentration of nitrate ions after single-dose administration” value ([6]; 75 μmol/kg subcutaneously in cervical region) was 194.9 µmol/L and the “value of areal ratio of retinal avascular area” value [2, 11] was 12.7%. The “value of retinal avascular area” value [2, 11] was 842271.02 μm^2, the “retinal avascular area reduced as compared to control group” value [2] was “approximately 20%” and the “value of areal ratio of retinal avascular area” value [3] was 8.76%. The “value of retinal avascular area” value [3] was 506451.72 μm^2, the “reduction of retinal avascular area in comparison with a control group” value [3] was “approximately 40%” and the “number of pathological vessels breaking the inner limiting membrane and extending into the vitreum” value [5] was “decreased”. The “nitrate having entered systemic circulation secreted in saliva” value [7] was “approximately 25%” and the “portion of nitrate in saliva reduced to nitrite by dental bacteria” value [7] was “approximately 30%”.
